Laboratory results: US11865126B2, “Method for treating anxiety disorders, headache disorders, and eating disorders with psilocybin” (priority 2019, dated 2024)

Tested on: healthy subjects
Assay: Scale of Social Responsibility (SSR)
Format: in vivo, human
Description: In some embodiments, the Scale of Social Responsibility (SSR) is utilized to evaluate the safety and/or efficacy of psilocybin. The SSR measures perceptions regarding the importance of ethics and social responsibility.
The following list of outcome measures are non-exhaustive. • a. The short-term change from Baseline (Day −1 [Visit 2]) to Day 7 (Visit 5) in cognitive measures of attention, spatial and working memory and executive function was measured by a composite score of the CANTAB Panel (Spatial Working Memory [SWM], Rapid Visual Information Processing [RVP], Paired Associates Learning [PAL]). • b. The short-term change from Baseline (Day −1 [Visit 2]) to Day 7 (Visit 5) in Social Cognition Panel scales (Pictorial Empathy Test [PET], Reading the Mind in the Eyes Test [RMET], Toronto Empathy Questionnaire [TEQ], Social Value Orientation [SVO], Scale of Social Responsibility [SSR]). • c. The change from Baseline (Day −1 [Visit 2]) to Day 28 (Visit 6) in cognitive measures of attention, spatial and working memory and executive function as measured by a composite score of the CANTAB Panel (SWM, RVP, PAL). • d. The long-term change from Baseline (Day −1 [Visit 2]) to Day 84 (Visit 7) in Social Cognition Panel scales (PET, RMET, TEQ, SVO, SSR). • e. Dose-related differences between cognitive effects of psilocybin at Baseline (Day −1 [Visit 2]), Day 7 (Visit 5) and Day 28 (Visit 6), as measured by a composite score of the CANTAB Panel (SWM, RVP, PAL). • f. Dose-related differences between psychological effects of psilocybin at Baseline (Day −1 [Visit 2]), Day 7 (Visit 5) and Day 84 (Visit 7), as measured by Social Cognition Panel scales (PET, RMET, TEQ, SVO, SSR). • g. Differences in cognitive effects of psilocybin between psilocybin-naïve and experienced subjects at Baseline (Day −1 [Visit 2]), Day 7 (Visit 5) and Day 28 (Visit 6), as measured by a composite score of the CANTAB Panel (SWM, RVP, PAL). • h. Differences in Positive and Negative Affect Schedule (PANAS) after study drug administration on Day 0 (Visit 3). • i. Differences between psilocybin and placebo in the Emotion Recognition Test (ERT), Intra-Extra Dimensional Set Shift (IED), One Touch Stockings (OTS), Verbal Fluency and Digit Span Forward at Day 7 (Visit 5). • j. A composite score of the CANTAB Panel, including the following tests: • i. Spatial Working Memory (SWM) (performed at Visit 2, Visit 5, and Visit 6). • ii. Rapid Visual Information Processing (RVP) (performed at Visit 2, Visit 5, and Visit 6). • iii. Paired Associates Learning (PAL) (performed at Visit 2, Visit 5, and Visit 6). • k. Cognitive Flexibility Panel • i. Emotion Recognition Task (ERT) (performed at Visit 5). • ii. Intra-Extra Dimensional Set Shift (IED) (performed at Visit 5). • iii. One Touch Stockings (OTS) (performed at Visit 5). • iv. Verbal Fluency (performed at Visit 5). • v. Digit Span Forward (performed at Visit 5). • l. Five Dimension Altered States of Consciousness questionnaire (5D-ASC) (performed at Visit 3). • m. PANAS (performed at Visit 2 and Visit 3). • n. NEO-Five Factor Inventory (NEO-FFI) (performed at Visit 2, Visit 5, and Visit 7). • o. Symptom Checklist-90 item (SCL-90) (performed at Visit 2, Visit 5, and Visit 7). • p. Life Changes Inventory (LCI): The LCI measures changes in attitudes and values after near-death experiences often used to evaluate personal transformation following spiritually oriented experiences and practices. (performed at Visit 5 and Visit 7). • q. Social Cognition Panel scales • i. Pictorial Empathy Test (PET) (performed at Visit 2, Visit 5, and Visit 7). • ii. Reading the Mind in the Eyes Test (RMET) (performed at Visit 2, Visit 5, and Visit 7). • iii. Social Value Orientation (SVO) (performed at Visit 2, Visit 5, and Visit 7). • iv. Toronto Empathy Questionnaire (TEQ) (performed at Visit 2, Visit 5, and Visit 7). • v. Scale of Social Responsibility (SSR) (performed at Visit 2, Visit 5, and Visit 7). • r. Sheehan Suicidality Tracking Scale (SSTS) • s. […]

CN(C)CCc1c[nH]c2cccc(OP(=O)(O)O)c12 [psilocybin]
SSR compliance social rules change from baseline, LS mean difference Psilocybin 10 mg - Placebo (Day 7, MMRM): 0.0 | SSR compliance social rules change from baseline, LS mean difference Psilocybin 25 mg - Placebo (Day 7, MMRM): 0.1 | SSR compliance social rules change from baseline, LS mean difference Psilocybin 25 mg-10 mg (Day 7, MMRM): 0.1 | SSR fulfilling expectations change from baseline, LS mean difference Psilocybin 10 mg - Placebo (Day 7, MMRM): 0.1 | SSR fulfilling expectations change from baseline, LS mean difference Psilocybin 25 mg - Placebo (Day 7, MMRM): 0.2 | SSR fulfilling expectations change from baseline, LS mean difference Psilocybin 25 mg-10 mg (Day 7, MMRM): 0.1 | SSR global change from baseline, LS mean difference Psilocybin 10 mg - Placebo (Day 7, MMRM): 1.2 | SSR global change from baseline, LS mean difference Psilocybin 25 mg - Placebo (Day 7, MMRM): 2.8 | SSR global change from baseline, LS mean difference Psilocybin 25 mg-10 mg (Day 7, MMRM): 1.6 | SSR compliance social rules change from baseline, LS mean difference Psilocybin 10 mg - Placebo (Day 84, MMRM): −0.0 | SSR compliance social rules change from baseline, LS mean difference Psilocybin 25 mg - Placebo (Day 84, MMRM): 0.1 | SSR compliance social rules change from baseline, LS mean difference Psilocybin 25 mg-10 mg (Day 84, MMRM): 0.1 | SSR fulfilling expectations change from baseline, LS mean difference Psilocybin 10 mg - Placebo (Day 84, MMRM): −0.1 | SSR fulfilling expectations change from baseline, LS mean difference Psilocybin 25 mg - Placebo (Day 84, MMRM): 0.0 | SSR fulfilling expectations change from baseline, LS mean difference Psilocybin 25 mg-10 mg (Day 84, MMRM): 0.2 | SSR global change from baseline, LS mean difference Psilocybin 10 mg - Placebo (Day 84, MMRM): 0.3 | SSR global change from baseline, LS mean difference Psilocybin 25 mg - Placebo (Day 84, MMRM): 2.2 | SSR global change from baseline, LS mean difference Psilocybin 25 mg-10 mg (Day 84, MMRM): 1.8 | SSR fulfilling expectations change from baseline, LS mean (Psilocybin 10 mg, Day 7, MMRM): −0.1 | SSR fulfilling expectations change from baseline, LS mean (Psilocybin 10 mg, Day 84, MMRM): 0.2 | SSR fulfilling expectations change from baseline, LS mean (Psilocybin 25 mg, Day 7, MMRM): −0.0 | SSR fulfilling expectations change from baseline, LS mean (Psilocybin 25 mg, Day 84, MMRM): −0.0
